Experimental data: ChEMBL document CHEMBL5346971, “Discovery of the First Irreversible HDAC6 Isoform Selective Inhibitor with Potent Anti-Multiple Myeloma Activity” (J Med Chem, 2023)
The source made the active and inactive calls. No cut-off for these calls is given here.

Assays:
[1] = target: T1, Protein deacetylase HDAC6 (Homo sapiens) (UniProt Q9UBN7); assay: Inhibition of HDAC6 in human A549 cells assessed as acetyl alpha-tubulin level at 2 uM incubated for 5 hrs by western blot analysis relative to control; type: cell-based
T1 sequence (whole entry): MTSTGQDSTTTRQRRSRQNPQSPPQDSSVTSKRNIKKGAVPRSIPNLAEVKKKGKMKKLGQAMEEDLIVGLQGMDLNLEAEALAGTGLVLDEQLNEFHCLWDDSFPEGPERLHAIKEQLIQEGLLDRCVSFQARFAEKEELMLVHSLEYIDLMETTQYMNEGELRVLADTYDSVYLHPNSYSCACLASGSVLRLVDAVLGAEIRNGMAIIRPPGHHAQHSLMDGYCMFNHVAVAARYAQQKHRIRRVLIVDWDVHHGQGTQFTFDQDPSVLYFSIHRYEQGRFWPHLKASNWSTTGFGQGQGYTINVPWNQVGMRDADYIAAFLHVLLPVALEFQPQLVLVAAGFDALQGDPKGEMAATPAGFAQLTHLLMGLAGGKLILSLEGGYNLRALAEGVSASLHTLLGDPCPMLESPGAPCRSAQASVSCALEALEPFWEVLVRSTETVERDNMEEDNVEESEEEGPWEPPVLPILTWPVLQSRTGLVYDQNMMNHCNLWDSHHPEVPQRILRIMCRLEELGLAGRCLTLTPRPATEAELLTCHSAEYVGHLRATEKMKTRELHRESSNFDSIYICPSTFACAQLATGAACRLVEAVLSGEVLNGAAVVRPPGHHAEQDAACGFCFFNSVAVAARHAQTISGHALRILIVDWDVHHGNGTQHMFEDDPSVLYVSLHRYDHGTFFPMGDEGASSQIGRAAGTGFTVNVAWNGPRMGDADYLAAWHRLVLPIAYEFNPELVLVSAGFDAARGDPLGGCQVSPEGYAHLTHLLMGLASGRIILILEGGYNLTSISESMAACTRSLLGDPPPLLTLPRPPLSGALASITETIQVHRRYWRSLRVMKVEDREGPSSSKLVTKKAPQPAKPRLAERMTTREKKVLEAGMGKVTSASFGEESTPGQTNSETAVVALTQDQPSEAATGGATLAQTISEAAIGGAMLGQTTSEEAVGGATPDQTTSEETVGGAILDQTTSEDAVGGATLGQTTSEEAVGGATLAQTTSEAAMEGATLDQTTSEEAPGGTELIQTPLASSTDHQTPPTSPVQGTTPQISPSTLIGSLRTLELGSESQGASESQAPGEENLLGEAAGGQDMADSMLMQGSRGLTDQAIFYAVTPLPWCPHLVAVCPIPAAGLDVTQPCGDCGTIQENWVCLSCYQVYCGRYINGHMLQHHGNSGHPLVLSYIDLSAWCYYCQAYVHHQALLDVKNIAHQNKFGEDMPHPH

[2] = target: T2, Class 1 histone deacetylase (Homo sapiens) (UniProt Q13547+O15379+Q92769+Q9BY41); assay: Inhibition of class 1 HDAC in human A549 cells assessed as acetyl histone H4 level at 2 uM incubated for 5 hrs by western blot analysis relative to control; type: cell-based
T2 sequence (O15379 whole entry, looked up, the tested form may be a part): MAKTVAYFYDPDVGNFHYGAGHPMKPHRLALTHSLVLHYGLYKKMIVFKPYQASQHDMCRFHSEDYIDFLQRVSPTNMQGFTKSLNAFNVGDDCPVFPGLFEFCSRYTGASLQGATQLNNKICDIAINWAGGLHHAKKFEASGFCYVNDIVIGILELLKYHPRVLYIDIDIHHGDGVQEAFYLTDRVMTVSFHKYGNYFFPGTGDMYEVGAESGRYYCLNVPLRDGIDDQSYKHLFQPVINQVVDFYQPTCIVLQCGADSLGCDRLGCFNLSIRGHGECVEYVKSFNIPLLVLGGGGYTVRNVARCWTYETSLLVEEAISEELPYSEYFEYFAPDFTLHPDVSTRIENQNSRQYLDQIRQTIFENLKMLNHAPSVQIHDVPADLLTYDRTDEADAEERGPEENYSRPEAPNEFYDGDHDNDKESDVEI
T2 sequence (Q13547 whole entry, looked up, the tested form may be a part): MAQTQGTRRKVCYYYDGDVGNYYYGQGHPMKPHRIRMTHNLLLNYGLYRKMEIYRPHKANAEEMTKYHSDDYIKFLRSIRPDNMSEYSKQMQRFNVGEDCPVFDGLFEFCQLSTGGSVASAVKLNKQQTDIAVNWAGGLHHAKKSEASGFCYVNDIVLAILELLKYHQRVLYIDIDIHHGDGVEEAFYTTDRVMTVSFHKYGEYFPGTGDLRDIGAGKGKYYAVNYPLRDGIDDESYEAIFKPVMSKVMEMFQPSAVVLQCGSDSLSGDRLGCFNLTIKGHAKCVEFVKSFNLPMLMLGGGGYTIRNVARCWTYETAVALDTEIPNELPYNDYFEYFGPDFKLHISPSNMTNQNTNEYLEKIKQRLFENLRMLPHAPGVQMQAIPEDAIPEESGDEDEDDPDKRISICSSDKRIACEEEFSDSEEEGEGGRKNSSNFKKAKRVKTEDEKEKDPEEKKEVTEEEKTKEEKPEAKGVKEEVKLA
T2 sequence (Q92769 whole entry, looked up, the tested form may be a part): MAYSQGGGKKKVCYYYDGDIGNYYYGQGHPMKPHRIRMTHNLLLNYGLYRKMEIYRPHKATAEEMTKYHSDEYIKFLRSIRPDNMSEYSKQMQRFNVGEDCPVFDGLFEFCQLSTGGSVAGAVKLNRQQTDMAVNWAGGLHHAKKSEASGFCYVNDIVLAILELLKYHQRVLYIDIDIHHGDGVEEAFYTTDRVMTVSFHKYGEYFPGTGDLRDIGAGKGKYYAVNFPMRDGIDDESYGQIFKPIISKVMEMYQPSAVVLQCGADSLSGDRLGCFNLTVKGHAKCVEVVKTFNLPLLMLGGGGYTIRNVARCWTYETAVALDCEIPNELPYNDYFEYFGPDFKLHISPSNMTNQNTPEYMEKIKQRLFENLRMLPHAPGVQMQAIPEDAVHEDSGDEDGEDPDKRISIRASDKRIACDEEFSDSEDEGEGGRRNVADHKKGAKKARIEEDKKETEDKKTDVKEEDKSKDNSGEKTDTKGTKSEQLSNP
T2 sequence (Q9BY41 whole entry, looked up, the tested form may be a part): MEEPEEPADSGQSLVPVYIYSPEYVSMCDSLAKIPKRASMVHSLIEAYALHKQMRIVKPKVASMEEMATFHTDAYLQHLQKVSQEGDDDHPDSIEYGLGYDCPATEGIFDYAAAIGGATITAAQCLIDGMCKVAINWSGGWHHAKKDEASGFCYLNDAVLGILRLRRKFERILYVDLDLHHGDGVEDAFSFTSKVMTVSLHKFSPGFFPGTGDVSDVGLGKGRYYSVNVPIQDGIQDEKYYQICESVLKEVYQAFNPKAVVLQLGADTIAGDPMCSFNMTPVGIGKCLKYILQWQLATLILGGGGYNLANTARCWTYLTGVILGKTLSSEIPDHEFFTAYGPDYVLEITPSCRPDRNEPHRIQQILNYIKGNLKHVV

[3] = target: T3, Protein deacetylase HDAC6 (Homo sapiens, UniProt Q9UBN7); assay: Inhibition of N-terminal GST-tagged human full length recombinant HDAC6 (1 to 1215 residues) expressed in Sf9 cells using Boc-Lys(acetyI)-AMC as substrate preincubated with enzyme for 1 hr followed by substrate addition and measured after 30 mins by fluorescence based analysis
T3 sequence (Q9UBN7 whole entry): T1 sequence (whole entry)

Histone deacetylase 2 = Histone deacetylase 2 (Homo sapiens, UniProt Q92769); assay: Inhibition of C-terminal FLAG-tagged human full length recombinant HDAC2 (1 to 488 residues) expressed in Sf9 cells using Boc-Lys(acetyI)-AMC as substrate preincubated with enzyme for 1 hr followed by substrate addition and measured after 30 mins by fluorescence based analysis
Chain of Histone deacetylase 2 (Q92769 whole entry, the tested form may be a part): as the sequence (Q92769 whole entry, looked up, the tested form may be a part) above

Homo sapiens = species on record: Homo sapiens; assay: Selectivity index, ratio of IC50 for inhibition of C-terminal FLAG-tagged human full length recombinant HDAC2 (1 to 488 residues) expressed in Sf9 cells to IC50 for inhibition of N-terminal GST-tagged human full length recombinant HDAC6 (1 to 1215 residues) expressed in Sf9 cells
RPMI-8226 = assay: Antiproliferative activity against human RPMI-8226 cells assessed as inhibition of cell proliferation incubated for 48 hrs by CCK8 assay; type: functional, cell-based; settings: RPMI-8226, 48 h
U-266 = assay: Antiproliferative activity against human U-266 cells assessed as inhibition of cell proliferation incubated for 48 hrs by CCK8 assay; type: functional, cell-based; settings: U-266, 48 h
MM1.S = assay: Antiproliferative activity against human MM1.S cells assessed as inhibition of cell proliferation incubated for 48 hrs by CCK8 assay; type: functional, cell-based
[4] = Cytotoxicity against human L02 cells assessed as inhibition of cell proliferation incubated for 48 hrs by CCK8 assay; type: toxicity, cell-based
[5] = target: T1, Protein deacetylase HDAC6 (Homo sapiens); settings: A549, dose 80.0 nM, time 5.0 hrs
[6] = target: T2, Class 1 histone deacetylase (Homo sapiens); assay: Irreversible inhibition of class 1 HDAC in human A549 cells assessed as acetyl histone H4 level at 2 uM incubated for 5 hrs followed by drug wash-out for 24 hrs by western blot analysis; type: cell-based
[7] = target: T2, Class 1 histone deacetylase (Homo sapiens); assay: Irreversible inhibition of class 1 HDAC in human A549 cells assessed as acetyl histone H4 level at 2 uM incubated for 5 hrs followed by drug wash-out for 1 hr by western blot analysis; type: cell-based
[8] = target: T2, Class 1 histone deacetylase (Homo sapiens); assay: Irreversible inhibition of class 1 HDAC in human A549 cells assessed as acetyl histone H4 level at 2 uM incubated for 5 hrs followed by drug wash-out and measured immediately after drug wash-out by western blot analysis; type: cell-based
[9] = target: T1, Protein deacetylase HDAC6 (Homo sapiens); assay: Irreversible inhibition of HDAC6 in human A549 cells assessed as acetyl alpha-tubulin level at 2 uM incubated for 5 hrs followed by drug wash-out for 24 hrs by western blot analysis relative to control; type: cell-based
[10] = target: T1, Protein deacetylase HDAC6 (Homo sapiens); assay: Irreversible inhibition of HDAC6 in human A549 cells assessed as acetyl alpha-tubulin level at 2 uM incubated for 5 hrs followed by drug wash-out for 1 hr by western blot analysis relative to control; type: cell-based
[11] = target: T1, Protein deacetylase HDAC6 (Homo sapiens); assay: Irreversible inhibition of HDAC6 in human A549 cells assessed as acetyl alpha-tubulin level at 2 uM incubated for 5 hrs followed by drug wash-out and measured immediately after drug wash-out by western blot analysis relative to control; type: cell-based
[12] = target: T1, Protein deacetylase HDAC6 (Homo sapiens); assay: Irreversible inhibition of HDAC6 in human A549 cells assessed as acetyl alpha-tubulin level at 2 uM incubated for 5 hrs followed by drug wash-out for 6 hrs by western blot analysis relative to control; type: cell-based
[13] = Effect on HDAC6 protein expression in human A549 cells assessed as change in HDAC6 protein expression at 2 uM incubated for 5 hrs followed by drug wash-out and measured following drug wash-out by western blot analysis relative to control; type: functional
[14] = Effect on HDAC6 protein expression in human A549 cells assessed as change in HDAC6 protein expression at 2 uM incubated for 5 hrs followed by drug wash-out for 1 hr by western blot analysis relative to control; type: functional
[15] = Effect on HDAC6 protein expression in human A549 cells assessed as change in HDAC6 protein expression at 2 uM incubated for 5 hrs followed by drug wash-out for 6 hrs by western blot analysis relative to control; type: functional
[16] = Effect on HDAC6 protein expression in human A549 cells assessed as change in HDAC6 protein expression at 2 uM incubated for 5 hrs followed by drug wash-out for 24 hrs by western blot analysis relative to control; type: functional
[17] = target: T2, Class 1 histone deacetylase (Homo sapiens); assay: Irreversible inhibition of class 1 HDAC in human A549 cells assessed as acetyl histone H4 level at 2 uM incubated for 5 hrs followed by drug wash-out for 6 hrs by western blot analysis; type: cell-based
[18] = target: T2, Class 1 histone deacetylase (Homo sapiens); assay: Irreversible inhibition of class 1 HDAC in human A549 cells assessed as acetyl histone H3 level at 2 uM incubated for 5 hrs followed by drug wash-out and measured immediately after drug wash-out by western blot analysis; type: cell-based
[19] = target: T2, Class 1 histone deacetylase (Homo sapiens); assay: Irreversible inhibition of class 1 HDAC in human A549 cells assessed as acetyl histone H3 level at 2 uM incubated for 5 hrs followed by drug wash-out for 1 hr by western blot analysis; type: cell-based
[20] = target: T2, Class 1 histone deacetylase (Homo sapiens); assay: Irreversible inhibition of class 1 HDAC in human A549 cells assessed as acetyl histone H3 level at 2 uM incubated for 5 hrs followed by drug wash-out for 6 hrs by western blot analysis; type: cell-based
[21] = target: T2, Class 1 histone deacetylase (Homo sapiens); assay: Irreversible inhibition of class 1 HDAC in human A549 cells assessed as acetyl histone H3 level at 2 uM incubated for 5 hrs followed by drug wash-out for 24 hrs by western blot analysis; type: cell-based
[22] = target: T1, Protein deacetylase HDAC6 (Homo sapiens); assay: Inhibition of HDAC6 in human A549 cells assessed as acetyl alpha-tubulin level at 10 uM incubated for 5 hrs by western blot analysis relative to control; type: cell-based
[23] = target: T2, Class 1 histone deacetylase (Homo sapiens); assay: Inhibition of class 1 HDAC in human A549 cells assessed as acetyl histone H4 level at 10 uM incubated for 5 hrs by western blot analysis relative to control; type: cell-based

| Compound | fold change (FC) [1] | fold change (FC) [2] | IC50 [3] [µM] | IC50 (Histone deacetylase 2) [µM] | IC50 (RPMI-8226) [µM] | IC50 (MM1.S) [µM] | Ratio IC50 (Homo sapiens) | IC50 (U-266) [µM] | IC50 at 48 h [4] [µM] | other results |
| --- | --- | --- | --- | --- | --- | --- | --- | --- | --- | --- |
| O=C(/C=C/COc1no[n+]([O-])c1S(=O)(=O)c1ccccc1)NO | 0.8 | 0.5 | 10.4 | 6.6 |  |  | 0.6 |  |  |  |
| O=S(=O)(c1ccccc1)c1c(OCc2ccc(CO)cc2)no[n+]1[O-] |  |  |  |  | 1.1 | 0.91 |  | 1.5 | 8.4 |  |
| CN1CCc2c(c3ccccc3n2Cc2ccc(C(=O)NO)cc2)C1 |  |  |  |  |  |  |  |  |  | inhibition [5]: Active |
| O=C(NO)c1ccc(COc2nonc2S(=O)(=O)c2ccccc2)cc1 |  |  |  |  | 6.1 | 6.4 |  | > 10 | > 30 |  |
| O=S(=O)(c1ccccc1)c1c(OCCCCCCO)no[n+]1[O-] | 1.3 | 1.3 |  |  |  |  |  |  |  | fold change (FC) [22]: 1.2; fold change (FC) [23]: 0.8 |
| O=C(CCCCCOc1no[n+]([O-])c1S(=O)(=O)c1ccccc1)NO | 3.8 | 2.1 | 0.047 |  | 0.48 | 0.43 |  | 0.69 | 8.7 | fold change (FC) [6]: 1.8; fold change (FC) [7]: 4.7; fold change (FC) [8]: 4.4; fold change (FC) [9]: 2.5; fold change (FC) [10]: 2.2; fold change (FC) [11]: 2 |

The next lines start with results.

| fold change (FC) [1] | fold change (FC) [2] | IC50 [3] [µM] | IC50 (Histone deacetylase 2) [µM] | IC50 (RPMI-8226) [µM] | IC50 (MM1.S) [µM] | Compound | Ratio IC50 (Homo sapiens) | IC50 (U-266) [µM] | IC50 at 48 h [4] [µM] | other results |
| --- | --- | --- | --- | --- | --- | --- | --- | --- | --- | --- |
| 2.7 | 1.7 | 0.31 | 1 |  |  | O=C(/C=C/c1ccc(Oc2no[n+]([O-])c2S(=O)(=O)c2ccccc2)cc1)NO | 3.2 |  |  |  |
| 1.3 | 0.4 | 2.7 | 5.3 |  |  | COc1cc(C(=O)NO)ccc1Oc1no[n+]([O-])c1S(=O)(=O)c1ccccc1 | 2 |  |  |  |
| 2.1 | 0.5 | 0.16 | 3.4 | 1.2 | 1.1 | O=C(NO)c1ccc(Oc2no[n+]([O-])c2S(=O)(=O)c2ccccc2)cc1 | 21.3 | 1.3 | 14.3 | fold change (FC) [6]: 0.6; fold change (FC) [7]: 1.6; fold change (FC) [8]: 1; fold change (FC) [9]: 2.2; fold change (FC) [10]: 4.4; fold change (FC) [11]: 3.9; fold change (FC) [12]: 3.7; fold change (FC) [13]: 0.9; fold change (FC) [14]: 1.1; fold change (FC) [15]: 1.1; fold change (FC) [16]: 1.2; fold change (FC) [17]: 0.9; fold change (FC) [18]: 1.1; fold change (FC) [19]: 1.2; fold change (FC) [20]: 0.9; fold change (FC) [21]: 0.7 |
| 1.1 | 0.2 | 39.2 | 8.1 |  |  | O=C(NO)c1cccc(Oc2no[n+]([O-])c2S(=O)(=O)c2ccccc2)c1 | 0.2 |  |  |  |
